{"source": "patent US6627246B2", "about": "“Process for coating stents and other medical devices using super-critical carbon dioxide” (Ortho-McNeil Pharmaceutical, Inc., priority 2000, dated 2003)", "key": {"[1]": {"assay": "In-vitro release study of RWJ-53308 from PLGA coated stent", "type": "physicochemical", "settings": "from PLGA coated stent in 2 mL water", "experimental": "A coated stent obtained in step b was placed in a tube with 2 mL of water. A 1 mL. aliquot was taken at the 1 hr and at the 17.5 hour time point. This 1 mL. aliquot was replaced with fresh water at each sampling. The sampled aliquot was analyzed by reading UV absorbance at 261 nm. The drug concentration was calculated by comparing the absorbance of a standard solution containing 147 μg/mL aqueous solution of RWJ-53308.\nIt was observed that approx. 66 ug of RWJ-53308 was released at 1 hour and a cumulative amount of approx. 134 ug was released at 17.5 hours as shown in FIG. 1."}, "[2]": {"assay": "Determination of RWJ-53308 on the PLGA coated stent (24 h water maceration, UV 261 nm)", "type": "physicochemical", "settings": "macerated 24 hours in 2 mL water, UV absorbance 261 nm", "experimental": "A coated stent obtained in step b above was placed in a tube with 2 mL. water. The coated stent was allowed to macerate for 24 hours. The aqueous supernatant was drained, filtered and UV absorbance was read at 261 nm. The amount of RWJ-53308 on the stent was calculated by comparing the absorbance value of a standard solution containing 147 μg/mL solution of RWJ-53308. Thus the supernatant obtained by extracting the drug from the PLGA coated stent contained 105 μg of RWJ-53308."}}, "data": [{"smiles": "O=C(O)C[C@H](NC(=O)[C@@H]1CCCN(C(=O)CCC2CCNCC2)C1)c1cccnc1", "note": "[RWJ-53308, 3-Pyridinepropanoic acid, b-[[[(3R)-1-[1-oxo-3-(4-piperidinyl)propyl]-3-piperidinyl]carbonyl]amino]-, (bS)-(9CI)]", "values": [{"measurement": "amount of RWJ-53308 released", "setting": "[1]; at 1 hour", "result": "approx. 66 ug"}, {"measurement": "cumulative amount of RWJ-53308 released", "setting": "[1]; at 17.5 hours", "result": "approx. 134 ug"}, {"measurement": "amount of RWJ-53308 in supernatant extracted from PLGA coated stent", "setting": "[2]", "result": 105, "unit": "µg"}]}]}
